Structures can show the parent of a compound that is named as a salt.
Columns and labels:
[1] = tested on: acetylcholine-induced bronchoconstriction in guinea pigs; assay: Effects on acetylcholine-induced bronchoconstriction in guinea pigs; format: in vivo, guinea pig; details: Cavia porcellus; 24 hours after 25 μg/kg of the compounds were administered; read-out: percentage of bronchoconstriction suppression with respect to the acetylcholine stimulation
Protocol: These in vivo assays are used to evaluate the bronchoprotective effects based on the M3 muscarinic receptor antagonist activity and the β2 adrenergic receptor agonist activity of test compounds. Hartley male guinea pigs (Nippon SLC, Inc.) weighing about 400-500 g were used. The animals were anesthetized by inhalation of Fluothane (Takeda Pharmaceutical Company Limited) in a plastic box. The test compounds were dissolved in physiological saline containing DMSO, and administered through the nasal cavity into the trachea at a dose of 0.04-25 μg/kg and at a volume of 0.4 mL/kg. For control animals, solvent without a test compound was administered. In general, animals awake several minutes after completion of the administration. The animals were anesthetized with an intraperitoneal administration of 33% urethane/0.8% α-chloralose at a dose of 3 mL/kg. In order to intravenously administer acetylcholine or histamine, a catheter was inserted into the carotid artery. In order to measure artificial respiration and airway ventilation pressure, a cannula was inserted into the trachea. Artificial respiration was applied to the animals at a volume of 10 mL/kg and at a frequency of 60/minute, using a ventilator (Harvard Apparatus). The airway ventilation pressure was measured by the Konzett-Roessler method using a general respiratory function analysis system (M.I.P.S). Prior to administration of acetylcholine or histamine, the airway ventilation pressure was measured and baseline values were recorded. Then, physiological saline was administered through the carotid artery catheter at a volume of 0.4 mL/kg, and the airway ventilation pressure was measured. Bronchoconstrictor response was induced by administering acetylcholine (40 μg/kg, 0.4 mL/kg) or histamine (15 μg/kg, 0.4 mL/kg) through the carotid artery catheter one hour after the administration of the test compounds, and the airway ventilation pressure at the maximum contractile response was recorded. In addition, in order to evaluate duration of action of the test compounds, the above-mentioned dose of acetylcholine or histamine was administered, 1 hour, 6 hours, 12 hours, 18 hours, and 24 hours after the administration of test compounds, and the airway ventilation pressure was measured in the same way. The percentage of suppression by the test compounds with respect to the airway contractile response was calculated according to the following formula. (%) Percentage of the airway constriction suppression=(Airway ventilation pressure of test compound-dosed and acetylcholine- or histamine-dosed animals−Baseline value)/(Airway ventilation pressure of acetylcholine- or histamine-dosed animals−Baseline value)×100
The 50% inhibitory doses (ID50 values) of the test compounds were analyzed by a sigmoidal logistic model using XLfit4 (IDBS, Ltd.) for the percentage of the bronchoconstriction suppression at different doses of the test compounds.

[2] = molecular target: T1, human M3 muscarinic receptor (Homo sapiens, UniProt P20309); assay: Inhibitory effect on methacholine-induced calcium influx, FLIPR assay, CHO-K1 cells stably expressing the human M3 muscarinic receptor; format: cell-based; details: inhibition of calcium influx induced by methacholine
T1 construct: expressed in transfected cells; host or cells: CHO-K1
T1 sequence (P20309 whole entry): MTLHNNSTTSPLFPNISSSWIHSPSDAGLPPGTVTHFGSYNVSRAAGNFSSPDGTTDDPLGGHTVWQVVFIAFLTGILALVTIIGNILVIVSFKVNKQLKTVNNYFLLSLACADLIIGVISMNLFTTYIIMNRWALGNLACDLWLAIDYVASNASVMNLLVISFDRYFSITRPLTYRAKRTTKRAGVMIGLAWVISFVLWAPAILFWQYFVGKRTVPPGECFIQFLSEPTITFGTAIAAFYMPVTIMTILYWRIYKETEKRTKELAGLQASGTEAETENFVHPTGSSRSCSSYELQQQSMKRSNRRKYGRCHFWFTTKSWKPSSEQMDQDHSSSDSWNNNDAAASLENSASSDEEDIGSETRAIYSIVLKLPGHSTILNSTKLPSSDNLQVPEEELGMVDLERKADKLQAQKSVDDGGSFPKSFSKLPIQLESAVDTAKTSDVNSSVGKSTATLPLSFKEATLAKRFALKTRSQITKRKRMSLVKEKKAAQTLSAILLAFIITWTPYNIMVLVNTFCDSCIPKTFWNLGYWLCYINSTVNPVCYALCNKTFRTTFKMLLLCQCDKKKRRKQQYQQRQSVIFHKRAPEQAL
In short: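 Dye-loaded hM3 CHO-K1 cells were preincubated 180 s with compound solutions prepared at 10 two-fold concentrations (0.01–1000 nM). A 30 nM methacholine solution was then added. Fluorescence was traced for 170 s; max−min signal gave % inhibition against agonist and no-agonist controls, and IC50 came from a four-parameter logistic fit.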

IC50 [2] [nM]	Compound	inhibition in vivo at 0.025 mg/kg [1] [%]
13.2	COc1cc(NC(=O)CCCCc2ccc(-c3ccccc3)c(NC(=O)OC3CC[N+](C)(C)CC3)c2)c(Cl)cc1CNC[C@H](O)c1ccc(O)c2[nH]c(=O)ccc12 [Example 51, 4-({[5-(4-{[2-chloro-4-({[(2R)-2-hydroxy-2-(8-hydroxy-2-oxo-1,2-dihydroquinolin-5-yl)ethyl]amino}methyl)-5-methoxyphenyl]carbamoyl}butyl)-2-phenylphenyl]carbamoyl}oxy)-1,1-dimethylpiperidin-1-ium trifluoroacetate]	≥ 50
6.4	C[N+]1(C)CCC(OC(=O)Nc2cc(CCC(=O)Nc3ccc(CNC[C@H](O)c4ccc(O)c5[nH]c(=O)ccc45)cc3)ccc2-c2ccccc2)CC1 [Example 1, 4-({[5-(2-{[4-({[(2R)-2-hydroxy-2-(8-hydroxy-2-oxo-1,2-dihydroquinolin-5-yl)ethyl]amino}methyl)phenyl]carbamoyl}ethyl)-2-phenylphenyl]carbamoyl}oxy)-1,1-dimethylpiperidin-1-ium trifluoroacetate]	≥ 50
